From patent US9771353B2, “Kinase inhibitors based upon N-alkyl pyrazoles” (RESPIVERT LIMITED, priority 2013, dated 2017) come the findings set out here.

One assay concerns d-U937 cells. As to the kind of experiment: Accumulation of β catenin in d-U937 cells, assay (m). It counts as cell-based, human. The method, then:
U937 cells, a human monocytic cell line, are differentiated into macrophage-type cells by incubation with PMA; (100 ng/mL) for between 48 to 72 hr. The cells are then incubated with either final concentrations of test compound or vehicle for 18 hr. The induction of β-catenin by the test compounds is stopped by replacing the media with 4% formaldehyde solution. Endogenous peroxide activity is neutralised by incubating with quenching buffer (100 μL, 0.1% sodium azide, 1% H2O2 in PBS with 0.05% Tween-20) for 20 min. The cells are washed with washing buffer (200 μL; PBS containing 0.05% Tween-20) and incubated with blocking solution (200 μL; 5% milk in PBS) for 1 hr, re-washed with washing buffer (200 μL) and then incubated overnight with anti-β-catenin antibody solution (50 μL) in 1% BSA/PBS (BD, Oxford, UK).
After washing with washing buffer (3×200 μL; PBS containing 0.05% Tween-20), cells are incubated with an HRP-conjugated secondary antibody solution (100 μL) in 1% BSA/PBS (Dako, Cambridge, UK) and the resultant signal is determined colourimetrically (OD: 450 nm with a reference wavelength of 655 nm) using TMB substrate (50 μL; R&D Systems, Abingdon, UK). This reaction is stopped by addition of 1N H2SO4 solution (50 μL). Cells are then washed with washing buffer and 2% crystal violet solution (50 μL) is applied for 30 min. After washing with washing buffer (3×200 μL), 1% SDS (100 μL) is added to each well and the plates are shaken lightly for 1 hr prior to measuring the absorbance at 595 nm (Varioskan® Flash, Thermo-Fisher Scientific).
The measured OD450-655 readings are corrected for cell number by dividing the OD450-655 by the OD595 readings. The percentage induction for each well is calculated relative to vehicle, and the ratio of induction normalised in comparison with the induction produced by a standard control comprising of N-(4-(4-(3-(3-tert-butyl-1-p-tolyl-1H-pyrazol-5-yl)ureido)naphthalen-1-yloxy)pyridin-2-yl)-2-methoxyacetamide (1 μg/mL) which is defined as 100%.

A further assay concerns the target p38 MAPKα (Homo sapiens (Human), UniProt Q16539). Description: p38 MAPKα enzyme inhibition (FRET, Z-LYTE), Method 2. It counts as biochemical.
The next assay deals with c-Src (Homo sapiens (Human), UniProt P12931). Description: c-Src enzyme inhibition (FRET, Z-LYTE). The assay is classed as biochemical. The method, then:
The enzyme inhibitory activities of compounds disclosed herein are determined by FRET using synthetic peptides labelled with both donor and acceptor fluorophores (Z-LYTE, Invitrogen Ltd., Paisley, UK).
The relevant enzyme (3000 ng/mL or 2000 ng/mL respectively, 2.5 μL) is incubated with the test compound (either 4 μg/mL, 0.4 μg/mL, 0.04 μg/mL, or 0.004 μg/mL, 2.5 μL each) for 2 hr at RT. The FRET peptides (8 μM, 2.5 μL), and appropriate ATP solutions (2.5 μL, 800 μM for c-Src, and 60 μM ATP for Syk) are then added to the enzymes/compound mixtures and incubated for 1 hr. Development reagent (protease, 5 μL) is added for 1 hr prior to detection in a fluorescence microplate reader (Varioskan® Flash, ThermoFisher Scientific).
In all cases, the site-specific protease cleaves non-phosphorylated peptide only and eliminates the FRET signal. Phosphorylation levels of each reaction are calculated using the ratio of coumarin emission (donor) over fluorescein emission (acceptor), for which high ratios indicate high phosphorylation and low ratios indicate low phosphorylation levels.

The subject of assay [1] is TNBS-induced colitis in mice. As to the kind of experiment: TNBS-induced colitis in mice, in vivo assay (iv), conducted over 2 days. The conditions noted are these: for Ulcer grade: TNBS + Vehicle 4.3 ± 0.2; for LP inflammation: TNBS + Vehicle 4.7 ± 0.1. The protocol:
Non-fasted, 10-12 week old, male BDF1 mice are dosed by oral gavage twice daily with either vehicle (5 mL/kg), reference item (Budesonide 2.5 mg/kg) or test compound (1 or 5 mg/kg) one day before (Day −1) stimulation of the inflammatory response by treatment with 2,4,6-trinitrobenzenesulphonic acid (TNBS) (15 mg/mL in 50% ethanol/50% saline). On Day 0 of the study TNBS (200 μL) is administered intra-colonically via a plastic catheter with BID dosing of the vehicle, reference or test compound continuing for 2 or 4 days. During the study animals are weighed every day and stool observations are made and recorded as a score, based on stool consistency. At the time of sacrifice on Day 2 (or Day 4) the large intestine is removed and the length and weight recorded. Sections of the colon are taken for histopathology scoring to determine disease severity.

Assay [2] deals with intestinal mucosa biopsies from UC patients. As to the kind of experiment: Human biopsy assay (l): cytokine release from intestinal mucosa biopsies of ulcerative colitis patients. The assay is classed as cell-based. The conditions noted are these: 1 μg/mL, 24 hours. The method, then:
Intestinal mucosa biopsies are obtained from the inflamed regions of the colon of IBD patients. The biopsy material is cut into small pieces (2-3 mm) and placed on steel grids in an organ culture chamber at 37° C. in a 5% CO2/95% O2 atmosphere in serum-free media. DMSO control or test compounds at the desired concentration are added to the tissue and incubated for 24 hr in the organ culture chamber. The supernatant is harvested for determination of IL-6, IL-8, IL-1β and TNFα levels by R&D ELISA. Percentage inhibition of cytokine release by the test compounds is calculated relative to the cytokine release determined for the DMSO control (100%).

Where [3] appears, read: 1 μg/mL test compound, normalised to reference N-(4-(4-(3-(3-tert-butyl-1-p-tolyl-1H-pyrazol-5-yl)ureido)naphthalen-1-yloxy)pyridin-2-yl)-2-methoxyacetamide.
[4] abbreviates: 5 μg/mL test compound, normalised to the same reference compound.
The mark [5] stands for this setting: UC patient biopsies, DMSO control = 100%.

Sequence of p38 MAPKα (Q16539 whole entry): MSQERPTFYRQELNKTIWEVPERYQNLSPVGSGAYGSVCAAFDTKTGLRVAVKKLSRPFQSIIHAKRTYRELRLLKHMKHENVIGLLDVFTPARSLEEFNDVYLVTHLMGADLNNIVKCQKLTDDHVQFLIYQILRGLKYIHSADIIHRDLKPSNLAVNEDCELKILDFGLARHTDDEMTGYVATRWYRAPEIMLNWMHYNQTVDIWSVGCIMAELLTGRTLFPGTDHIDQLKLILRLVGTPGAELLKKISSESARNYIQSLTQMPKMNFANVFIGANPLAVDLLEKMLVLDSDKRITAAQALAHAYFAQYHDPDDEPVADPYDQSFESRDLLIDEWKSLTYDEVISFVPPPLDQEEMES
Sequence of c-Src (P12931 whole entry, looked up): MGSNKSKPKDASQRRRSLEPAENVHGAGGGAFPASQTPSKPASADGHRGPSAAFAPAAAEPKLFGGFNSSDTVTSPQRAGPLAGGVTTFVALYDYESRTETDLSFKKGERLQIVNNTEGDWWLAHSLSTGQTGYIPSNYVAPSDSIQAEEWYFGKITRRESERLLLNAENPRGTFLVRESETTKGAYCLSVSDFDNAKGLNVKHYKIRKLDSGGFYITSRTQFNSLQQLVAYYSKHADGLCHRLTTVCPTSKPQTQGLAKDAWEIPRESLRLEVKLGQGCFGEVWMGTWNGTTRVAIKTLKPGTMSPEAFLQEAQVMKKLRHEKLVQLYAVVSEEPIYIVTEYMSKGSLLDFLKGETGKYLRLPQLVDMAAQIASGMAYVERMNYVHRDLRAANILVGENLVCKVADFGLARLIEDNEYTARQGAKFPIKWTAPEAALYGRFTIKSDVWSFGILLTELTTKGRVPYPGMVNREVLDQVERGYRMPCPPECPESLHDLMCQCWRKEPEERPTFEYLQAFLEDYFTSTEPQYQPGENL

Take `COCCOCCOCCOc1cc(Nc2nccc(Oc3ccc(NC(=O)Nc4cc(C(C)(C)C)nn4C)c4ccccc34)n2)cc(OC)c1` [Example 2, 1-(3-(tert-Butyl)-1-methyl-1H-pyrazol-5-yl)-3-(4-((2-((3-methoxy-5-(2-(2-(2-methoxy-ethoxy)ethoxy)ethoxy)phenyl)amino)pyrimidin-4-yl)oxy)naphthalen-1-yl)urea]: the “% β-catenin induction” value with d-U937 cells (setting [3]) is −2%; with d-U937 cells (setting [4]) it was 6.5%; with d-U937 cells (10 μg/mL test compound, normalised to the same reference compound), 4.5%. The results for the IC50 on p38 MAPKα and against c-Src were 10 nM and 5 nM, respectively.

For the compound `C#Cc1cc(Nc2nccc(Oc3ccc(NC(=O)Nc4cc(C(C)(C)C)nn4C)c4ccccc34)n2)cc(C(=O)NCCN2CCOCC2)c1` [Example 1, 3-((4-((4-(3-(3-(tert-Butyl)-1-methyl-1H-pyrazol-5-yl)ureido)naphthalen-1-yl)oxy)pyrimidin-2-yl)amino)-5-ethynyl-N-(2-morpholinoethyl)benzamide], the “% β-catenin induction” value in the assay on d-U937 cells (setting [3]) is recorded as −1.5%. Further, in the assay on d-U937 cells (setting [4]), the “% β-catenin induction” value worked out at 10.5%. In addition, in assay [1] (1 mg/kg oral BID, mice, 2 days), the Ulcer grade is given as 3.3 ± 0.5 and the LP inflammation was found to be 4.2 ± 0.2. In assay [1] (5 mg/kg oral BID, mice, 2 days), the Ulcer grade came out at 3.2 ± 0.5 and the LP inflammation is 2.4 ± 0.3. The “inflammatory cell infiltrate in the reticular and laminar propria zone” value in assay [1] (TNBS colitis, mice) is on record as “marked reduction”. Further, the “activity in in vivo model of colonic inflammation (histopathology analysis)” value in assay [1] (TNBS colitis, mice, 2 days) is “significant activity”. Also, the “ulcer grade and epithelial repair compared to the vehicle control” value in assay [1] (dosed orally at either 1 or 5 mg/kg) is given as “marked improvements”. In assay [2] (setting [5]), this compound registered an IL-1β release of 3 ± 2%, an IL-6 release of 8 ± 8% and an IL-8 release of 2 ± 2%. Moreover, in assay [2] (biopsies from ulcerative colitis patients), the “cytokine (IL-1β, IL-6 and IL-8) release compared to the DMSO control” value is reported as “significantly inhibited”.
